Paper PMC9182007, “Statistical Methods in the Study of Protein Binding and Its Relationship to Drug Bioavailability in Breast Milk” (Molecules, 2022)
Like-named read-outs stand apart in the source and are kept apart here.

What was measured:
[1] = test system: plasma protein; conditions: ref DrugBank [7], cited from earlier work
[2] = HPLC on immobilized artificial membrane column (HPLCIAM); assay type: physicochemical; conditions: for log k IAM: Table S5, IAM column, pH 7.4; for k IAM: Table S5, retention factor, IAM column, phosphate buffer pH 7.4/acetonitrile 80:20; for kIAM / log kIAM: Table S9, external group
[3] = NP TLC on non-impregnated control plates; assay type: physicochemical; conditions: for CNP (Rf, control NP plate): Table S3, non-impregnated NP plate, acetonitrile/acetate buffer pH 7.4/methanol 60:20:20; for CNP (Rf value from the non-impregnated NP plate, control): Table S8, external group
[4] = RP TLC on non-impregnated control plates; assay type: physicochemical; conditions: for CRP (Rf, control RP plate): Table S4, non-impregnated RP plate, acetonitrile/acetate buffer pH 7.4/methanol 60:20:20
[5] = molecular target: T1, bovine serum albumin (BSA) (Bos taurus, UniProt P02769); test: NP TLC on plates impregnated with bovine serum albumin; assay type: binding; conditions: for NP (Rf, BSA-impregnated NP plate): Table S3, NP plate impregnated with 2 mg/mL BSA, pH 7.4 mobile phase
T1 construct: purchased Sigma Aldrich

[6] = molecular target: T1, bovine serum albumin (BSA); test: RP TLC on plates impregnated with bovine serum albumin; assay type: binding
[7] = molecular target: human serum albumin (HSA) (Homo sapiens, UniProt P02768)
[8] = Table S1, plasma protein binding given as fraction
[9] = Table S6, external group (n = 38), given as fraction
[10] = Table S5, retention factor, HSA column, pH 7.4, 25 degrees Celsius

Sequence of human serum albumin (HSA) (P02768 25-609): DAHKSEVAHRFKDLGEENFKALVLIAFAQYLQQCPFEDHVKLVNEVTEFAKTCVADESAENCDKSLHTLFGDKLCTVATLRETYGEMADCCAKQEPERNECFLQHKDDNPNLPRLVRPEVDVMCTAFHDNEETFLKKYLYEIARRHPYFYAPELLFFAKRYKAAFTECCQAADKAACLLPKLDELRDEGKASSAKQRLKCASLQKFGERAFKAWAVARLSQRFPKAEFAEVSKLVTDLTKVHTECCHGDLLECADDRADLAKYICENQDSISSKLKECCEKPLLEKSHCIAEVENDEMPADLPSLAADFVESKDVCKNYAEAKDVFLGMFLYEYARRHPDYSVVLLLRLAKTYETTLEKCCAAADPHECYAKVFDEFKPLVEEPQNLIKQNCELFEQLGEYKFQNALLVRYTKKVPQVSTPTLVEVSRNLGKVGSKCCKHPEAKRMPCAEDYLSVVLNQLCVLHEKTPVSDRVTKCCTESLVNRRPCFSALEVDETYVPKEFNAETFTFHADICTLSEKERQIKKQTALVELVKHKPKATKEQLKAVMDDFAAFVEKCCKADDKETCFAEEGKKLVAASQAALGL
T1 sequence (P02769 25-607): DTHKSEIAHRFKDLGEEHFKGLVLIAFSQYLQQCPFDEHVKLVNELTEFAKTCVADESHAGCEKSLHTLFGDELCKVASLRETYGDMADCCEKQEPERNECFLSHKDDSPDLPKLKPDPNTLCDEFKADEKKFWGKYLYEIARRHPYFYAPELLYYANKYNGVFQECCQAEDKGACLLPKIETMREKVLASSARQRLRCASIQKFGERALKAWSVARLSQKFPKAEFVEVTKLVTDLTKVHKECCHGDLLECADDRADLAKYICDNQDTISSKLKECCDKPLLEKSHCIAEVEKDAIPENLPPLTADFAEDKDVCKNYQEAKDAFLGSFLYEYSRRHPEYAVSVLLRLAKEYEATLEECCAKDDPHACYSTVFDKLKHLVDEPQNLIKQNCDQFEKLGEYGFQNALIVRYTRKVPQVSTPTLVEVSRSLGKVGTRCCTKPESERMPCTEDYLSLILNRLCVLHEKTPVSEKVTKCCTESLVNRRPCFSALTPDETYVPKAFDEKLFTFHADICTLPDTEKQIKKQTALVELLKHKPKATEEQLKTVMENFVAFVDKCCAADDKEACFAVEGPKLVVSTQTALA

Compound	log k IAM [2]	k IAM [2]	CNP (Rf, control NP plate) [3]	CRP (Rf, control RP plate) [4]	other results
C[C@H]1COc2c(N3CCN(C)CC3)c(F)cc3c(=O)c(C(=O)O)cn1c23 [levofloxacin]	-0.04	0.90	0.17	0.27	PB [1, 8]: 0.31
CN(C)CCCN1c2ccccc2CCc2ccc(Cl)cc21 [clomipramine]	–	–	–	–	kIAM [2]: 3.05; log kIAM [2]: 0.48
Nc1nc2c(ncn2COCCO)c(=O)[nH]1 [aciclovir]	-1.04	0.09	–	0.99	PB [1, 8]: 0.21
CC(=O)CC(c1ccc([N+](=O)[O-])cc1)c1c(O)c2ccccc2oc1=O (stereo not shown) [acenocumarol]	-0.27	0.53	–	–	–
C[C@]12CC[C@@H]3c4ccc(O)cc4CC[C@H]3[C@@H]1CCC2=O [estrone]	1.47	29.40	0.99	0.79	PB [1, 8]: 0.95; NP (Rf, BSA-impregnated NP plate) [5]: 0.99
gentamycin	–	–	–	–	kIAM [2]: 4.25; log kIAM [2]: 0.63; CNP (Rf value from the non-impregnated NP plate, control) [3]: 0.96
CN(C)CCCC1(c2ccc(F)cc2)OCc2cc(C#N)ccc21 (stereo not shown) [citalopram]	–	–	–	–	PB [1, 9]: 0.80; kIAM [2]: 3.14; log kIAM [2]: 0.50
C[C@H](CS)C(=O)N1CCC[C@H]1C(=O)O [captopril]	-2.19	0.01	0.77	–	–
CC(C)Cc1ccc(C(C)C(=O)O)cc1 (stereo not shown) [ibuprofen]	-0.07	0.86	–	–	–
CCN(CC)CCCC(C)Nc1ccnc2cc(Cl)ccc12 (stereo not shown) [chloroquine]	–	–	–	–	PB [1, 9]: 0.55; log kIAM [2]: 0.49
COc1ccc2cc([C@H](C)C(=O)O)ccc2c1 [naproxen]	–	–	0.92	0.88	–
COc1cc(Cc2cnc(N)nc2N)cc(OC)c1OC [trimethoprim]	–	–	–	–	PB [1, 9]: 0.44; NP (Rf value from the NP plate impregnated with 2 mg/mL BSA solution) ([5]; Table S8, external group): 0.59; CNP (Rf value from the non-impregnated NP plate, control) [3]: 0.57
CCOC(=O)C1=C(COCCN)NC(C)=C(C(=O)OC)C1c1ccccc1Cl (stereo not shown) [amlodipine]	2.00	98.90	–	0.61	–
CC1COc2c(N3CCN(C)CC3)c(F)cc3c(=O)c(C(=O)O)cn1c23 (stereo not shown) [ofloxacin]	–	–	–	–	PB [1, 9]: 0.32; kIAM [2]: 3.07; log kIAM [2]: 0.49; CNP (Rf value from the non-impregnated NP plate, control) [3]: 0.24
O=C1Nc2ccc(Cl)cc2C(c2ccccc2)=NC1O (stereo not shown) [oxazepam]	0.68	4.78	–	–	–
COc1cc2c(c(OC)c1OC)-c1ccc(OC)c(=O)cc1[C@@H](NC(C)=O)CC2 [colchicine]	–	–	–	–	PB [1, 9]: 0.39
CC(C)(O)c1ccccc1CC[C@@H](SCC1(CC(=O)O)CC1)c1cccc(/C=C/c2ccc3ccc(Cl)cc3n2)c1 [montelukast]	2.00	99.10	0.95	0.70	–
CCC(C)(C)C(=O)O[C@H]1C[C@@H](C)C=C2C=C[C@H](C)[C@H](CC[C@@H]3C[C@@H](O)CC(=O)O3)[C@H]21 [simvastatin]	–	–	0.19	0.66	–
Nc1cc(N2CCCCC2)nc(N)[n+]1[O-] [minoxidil]	–	–	–	–	PB [1, 9]: 0.00; kIAM [2]: 1.96; log kIAM [2]: 0.29; CNP (Rf value from the non-impregnated NP plate, control) [3]: 0.43
CN(C)CCC[C@@]1(c2ccc(F)cc2)OCc2cc(C#N)ccc21 [escitalopram]	1.51	32.08	0.42	0.55	PB [1, 8]: 0.56
O=C(O)COCCN1CCN([C@H](c2ccccc2)c2ccc(Cl)cc2)CC1 [levocetrizine]	0.58	3.82	–	–	–
O=C(N[C@H](CO)[C@H](O)c1ccc([N+](=O)[O-])cc1)C(Cl)Cl [chloramphenikol]	0.03	1.08	0.99	0.89	RP (Rf, BSA-impregnated RP plate) ([6]; Table S4, RP plate impregnated with 2 mg/mL BSA, pH 7.4 mobile phase): 0.89; NP (Rf, BSA-impregnated NP plate) [5]: 0.97; log k HSA ([7]; Table S5, HSA, pH 7.4): -0.21; k HSA [7, 10]: 0.61
CCCNCC(O)COc1ccccc1C(=O)CCc1ccccc1 (stereo not shown) [propafenone]	–	–	0.57	0.56	–
CC(C(=O)O)c1cccc(C(=O)c2ccccc2)c1 (stereo not shown) [ketoprofen]	-0.71	0.20	–	–	–
CC(C)(C(=O)O)c1ccc(C(O)CCCN2CCC(C(O)(c3ccccc3)c3ccccc3)CC2)cc1 (stereo not shown) [fexofenadine]	–	–	0.61	0.85	–

Compound	log k IAM [2]	k IAM [2]	CNP (Rf, control NP plate) [3]	CRP (Rf, control RP plate) [4]	other results
CC(C)NCC(O)COc1cccc2ccccc12 (stereo not shown) [propranolol]	1.45	28.09	0.54	–	NP (Rf, BSA-impregnated NP plate) [5]: 0.50
CC(=O)CC(c1ccccc1)c1c(O)c2ccccc2oc1=O (stereo not shown) [warfarin]	–	–	–	–	kIAM [2]: 2.76; log kIAM [2]: 0.44
CCCCc1oc2ccccc2c1C(=O)c1cc(I)c(OCCN(CC)CC)c(I)c1 [amiodarone]	–	–	–	0.33	–
CCCc1cc(=O)[nH]c(=S)[nH]1 [propylthiouracil]	–	–	–	–	PB [1, 9]: 0.82; kIAM [2]: 1.51; log kIAM [2]: 0.18
Cc1nnc2n1-c1ccc(Cl)cc1C(c1ccccc1)=NC2 [alprazolam]	0.50	3.14	–	–	PB [1, 8]: 0.8
Cn1c(=O)c2c(ncn2C)n(C)c1=O [caffeine]	-0.75	0.18	0.82	–	–
CN1C(=O)C(O)N=C(c2ccccc2)c2cc(Cl)ccc21 (stereo not shown) [temazepam]	0.83	6.74	–	–	–
CCN1CCCC1CNC(=O)c1cc(S(N)(=O)=O)ccc1OC (stereo not shown) [sulpiride]	0.22	1.66	0.27	0.85	PB [1, 8]: 0.4
O=C(O)c1cn(C2CC2)c2cc(N3CCNCC3)c(F)cc2c1=O [ciprofloxacin]	–	–	0.11	0.38	–
C[C@H]1O[C@@H](O[C@H]2[C@@H](O)C[C@H](O[C@H]3[C@@H](O)C[C@H](O[C@H]4CC[C@@]5(C)[C@H](CC[C@@H]6[C@@H]5C[C@@H](O)[C@]5(C)[C@@H](C7=CC(=O)OC7)CC[C@]65O)C4)O[C@@H]3C)O[C@@H]2C)C[C@H](O)[C@@H]1O [digoxin]	0.57	3.69	–	–	–
C=C[C@H]1C[N@@]2CC[C@H]1C[C@H]2[C@H](O)c1ccnc2ccc(OC)cc12 [quinine]	–	–	–	–	kIAM [2]: 3.06; log kIAM [2]: 0.49
O=C(O)COC(=O)Cc1ccccc1Nc1c(Cl)cccc1Cl [aceclofenac]	0.42	2.63	0.89	–	k HSA ([7]; pH 7.4): 55.89
CCCCC(=O)N(Cc1ccc(-c2ccccc2-c2nnn[nH]2)cc1)[C@H](C(=O)O)C(C)C [valsartan]	-1.10	0.08	0.89	0.97	PB [1, 8]: 0.955
NS(=O)(=O)c1cc2c(cc1Cl)NCNS2(=O)=O [hydrochlorotiazide]	–	–	–	–	kIAM [2]: 2.01; log kIAM [2]: 0.30
CC(=O)Nc1nnc(S(N)(=O)=O)s1 [acetazolamid]	–	–	–	–	PB [1, 9]: 0.98; RP (Rf value from the RP plate impregnated with 2 mg/mL BSA solution) ([6]; Table S8, external group): 0.96; kHSA [7]: 0.74; log kHSA [7]: -0.13; CRP (Rf value from the non-impregnated RP plate, control) ([4]; Table S8, external group): 0.97
COc1cc2nc(N3CCN(C(=O)C4COc5ccccc5O4)CC3)nc(N)c2cc1OC (stereo not shown) [doxazosin]	-0.66	0.22	–	0.75	–
Cc1cnc(NC(=O)C2=C(O)c3ccccc3S(=O)(=O)N2C)s1 [meloxicam]	-0.31	0.49	–	–	–
CNCCC(Oc1ccc(C(F)(F)F)cc1)c1ccccc1 (stereo not shown) [fluoxetine]	1.82	66.64	0.68	0.54	PB [1, 8]: 0.945
Clc1ccc2c(c1)CCc1cccnc1C2=C1CCNCC1 [desloratidine]	1.70	50.45	–	–	–
COc1cccc(C2(O)CCCCC2CN(C)C)c1 (stereo not shown) [tramadol]	–	–	–	–	PB [1, 9]: 0.20
COCCCC/C(=N\OCCN)c1ccc(C(F)(F)F)cc1 [fluvoxamine]	–	–	–	–	CNP (Rf value from the non-impregnated NP plate, control) [3]: 0.34
NS(=O)(=O)c1cc(C2(O)NC(=O)c3ccccc32)ccc1Cl (stereo not shown) [chlortalidone]	0.12	1.32	0.96	–	PB [1, 8]: 0.75; NP (Rf, BSA-impregnated NP plate) [5]: 0.96; k HSA [7, 10]: 0.85
CC(C)c1c(C(=O)Nc2ccccc2)c(-c2ccccc2)c(-c2ccc(F)cc2)n1CC[C@@H](O)C[C@@H](O)CC(=O)O [atorvastatin]	–	–	–	0.80	–
CCN(CC)CC#CCOC(=O)C(O)(c1ccccc1)C1CCCCC1 (stereo not shown) [oxybutinin]	1.70	49.68	0.68	0.29	–
